In US20120040904A1, “Boronate Medicaments for Preventing Thrombosis During Surgery” (Trigen Holdings AG, priority 2004, published 2012):
Marks after values point to notes of the source that are not given here.

Key:
[1] = Comparative storage stability of sodium and calcium salts (Example 42); format: physicochemical; conditions: for Tri50c (w/w %, LOD corr.): corrected for loss on drying
Description: In both studies the active pharmaceutical ingredient was stored in grip sealed double bags within a PE/PP screw cap closed cylinder.

[2] = Stability: HPLC assay before and after drying over phosphorus pentoxide for 1 week; format: physicochemical; conditions: dry
Experimental: An assay of TRI 50c and its sodium and lysine salts before and after drying.
For sample analysis, 5 mg of dried and non-dried material was weighed in a 5 mL volumetric flask and dissolved in 1 mL acetonitrile and filled up with demineralised water to 5 mL.
The quantitative evaluation was performed using an HPLC-PDA method.

healthy male subjects = experiment: Intravenous administration into humans (randomised double blind placebo study); format: in vivo; conditions: intravenous infusion
Experimental: The test consisted of three groups, each of six males. From each group 5 men were given the active ingredient and 1 was given a placebo.
Total I.V. administered doses were: • 82 mg (7 mg intravenous bolus (over 30 s) followed by an infusion of 25 mg/h for 3 hours). • 130 mg (10 mg intravenous bolus (over 30 s) followed by an infusion of 40 mg/h for 3 hours). • 120 mg (by infusion of 40 mg/h for 3 hours).

[3] = Maximum solution concentration with and without pH control; format: physicochemical
[4] = system: dogs undergoing hypothermic CPB; experiment: Simulated mitral valve repair in dogs undergoing hypothermic CPB; format: in vivo, beagle dogs; conditions: intravenous, dogs on CPB
Experimental: Following a dose ranging study in conscious dogs, six beagle dogs were placed on CPB and underwent a simulated mitral valve repair. A range of dynamic coagulation markers were measured, including thrombin clotting time (TT), activated partial thromboplastin time (APTT), activated clotting time (ACT), ecarin clotting time (ECT), whole blood thrombin clotting time, platelet counts and function tests. In addition, pre and post-operative echocardiograms and intra-operative blood loss were evaluated. […] By virtue of its predictable anticoagulant efficacy and controlled duration of action, TGN 255 offers potential in on pump and off pump coronary bypass procedures.

beagle dogs = experiment: Intravenous administration in beagle dogs, PK/PD (thrombin time, APTT); format: in vivo; conditions: 1.0 mg/kg i.v.
Experimental: Plasma concentrations were measured using an LCMS/MS method.
Blood samples were taken into 3.8% tri-sodium citrate (1+8) at pre dose, 2, 5, 10, 20, 30, minutes post dose and then at 1, 2, 3, 4, 6, 8, 12 and 24 hours post dose. Plasma was prepared by centrifugation and frozen at minus 20° C. pending analysis.

## COCCC[C@H](NC(=O)[C@@H]1CCCN1C(=O)[C@@H](Cc1ccccc1)NC(=O)OCc1ccccc1)B([O-])O.COCCC[C@H](NC(=O)[C@@H]1CCCN1C(=O)[C@@H](Cc1ccccc1)NC(=O)OCc1ccccc1)B([O-])O.[Ca+2] [TRI 50c calcium salt]
[1]; T = 0
  Tri50c (w/w %, LOD corr.): (99.7) w/w %
[1]; T = 1, 25° C./60% r.h.
  Tri50c (w/w %, LOD corr.): (101.5) w/w %
[1]; T = 1, 40° C./75% r.h.
  Tri50c (w/w %, LOD corr.): (100.6) w/w %
[1]; T = 1, −20° C.
  Tri50c (w/w %, LOD corr.): (102.7)^x w/w %
[1]; T = 3, 25° C./60% r.h.
  Tri50c (w/w %, LOD corr.): (104.3) w/w %
[1]; T = 3, 40° C./75% r.h.
  Tri50c (w/w %, LOD corr.): (82.0) w/w %
[1]; T = 3, −20° C.
  Tri50c (w/w %, LOD corr.): (103.0)^x w/w %
[1]; T = 12 25° C./60% r.h.
  TRI 50c (w/w): 94.8 w/w

## COCCC[C@H](NC(=O)[C@@H]1CCCN1C(=O)[C@@H](Cc1ccccc1)NC(=O)OCc1ccccc1)B(O)O [TRI 50c, Cbz-(R)-Phe-(S)-Pro-(R)-boroMpg-OH]
[2]
  Amount: 1000.0 µg/mL

## COCCC[C@H](NC(=O)[C@@H]1CCCN1C(=O)[C@@H](Cc1ccccc1)NC(=O)OCc1ccccc1)B(O)O.[Na+] [TRI 50c sodium salt, Cbz-(R)-Phe-(S)-Pro-(R)-Mpg-B(OH)2 monosodium salt]
Healthy male subjects
  Effect on thrombin time (TT): rapid, dose-related increase
[3]; control solution, about pH 7
  Maximum concentration: about 20 mg/ml
[3]; pH of about 9.5, pH not controlled
  Concentration of solution obtainable: about 600 mg/ml
[4]
  Anticoagulation during bypass and surgery: excellent anticoagulation
  Bleeding during bypass and surgery: little bleeding
Beagle dogs
  APTT elevation: 1.3 times
